Test results: US8450313B2, “2,3-diaryl- or heteroaryl-substituted 1,1,1-trifluoro-2-hydroxypropyl compounds” (Hoffmann-La Roche Inc., priority 2009, dated 2013)

Target: T1, full length human recombinant glucocorticoid receptor (Homo sapiens, UniProt P04150)
T1 construct: It contains some partially purified full length human recombinant glucocorticoid receptor; purchased Panvera/Invitrogen PV4302
T1 sequence (P04150 1-777): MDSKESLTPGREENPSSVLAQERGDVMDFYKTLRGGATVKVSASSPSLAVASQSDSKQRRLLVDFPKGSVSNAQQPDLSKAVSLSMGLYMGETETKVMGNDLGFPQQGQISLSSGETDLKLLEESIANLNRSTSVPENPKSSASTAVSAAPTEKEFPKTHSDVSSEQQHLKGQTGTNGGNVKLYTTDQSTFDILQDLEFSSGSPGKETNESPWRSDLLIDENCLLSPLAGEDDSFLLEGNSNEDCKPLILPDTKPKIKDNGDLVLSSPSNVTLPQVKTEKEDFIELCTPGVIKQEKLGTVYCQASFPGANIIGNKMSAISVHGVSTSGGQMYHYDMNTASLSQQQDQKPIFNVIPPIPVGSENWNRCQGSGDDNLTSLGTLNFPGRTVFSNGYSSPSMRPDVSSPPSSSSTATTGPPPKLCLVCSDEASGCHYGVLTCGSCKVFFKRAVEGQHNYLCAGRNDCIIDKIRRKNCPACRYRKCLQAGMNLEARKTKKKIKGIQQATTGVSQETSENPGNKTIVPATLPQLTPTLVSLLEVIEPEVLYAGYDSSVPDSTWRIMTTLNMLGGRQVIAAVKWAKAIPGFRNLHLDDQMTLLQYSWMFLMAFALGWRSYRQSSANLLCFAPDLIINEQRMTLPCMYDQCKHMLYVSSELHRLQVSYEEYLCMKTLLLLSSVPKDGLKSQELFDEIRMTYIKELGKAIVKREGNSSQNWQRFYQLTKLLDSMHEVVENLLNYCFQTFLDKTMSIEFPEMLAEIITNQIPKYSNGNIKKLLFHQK
Experiment: Glucocorticoid Receptor Binding Assay (Glucocorticoid Receptor Competitor Assay far red kit, fluorescence polarization)
Conditions: competition with fluorescent GR ligand Fluormone GS Far Red, 3 hours at 22° C., pH 7.4; Ki calculated from IC50 by Cheng-Prusoff
Procedure, shortened: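 Compounds in serial dilution (from intermediate 4.2% DMSO stock) displace Fluormone GS Far Red from full-length human recombinant GR with stabilizing peptide, pH 7.4, incubated 3 hours at 22° C dark. Polarized fluorescence (610–660 nm) gives IC50 via sigmoidal fit, converted to Ki by Cheng-Prusoff.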

Ki | SMILES
1.3 nM | C[C@H](c1ccc(Oc2ccc(C(=O)O)c(F)c2)cc1Cl)[C@@](O)(c1ccc2oc(=O)n(C)c2c1)C(F)(F)F (stereo in doubt) [Example 177, 4-{3-Chloro-4-[3,3,3-trifluoro-2-hydroxy-1-methyl-2-(3-methyl-2-oxo-2,3-dihydro-benzooxazol-5-yl)-propyl]-phenoxy}-2-fluoro-benzoic acid]
13.3 nM | C[C@H](c1ccc(-c2cccc(C(=O)O)c2)cc1Cl)[C@@](O)(c1ccc2c(c1)oc(=O)n2C)C(F)(F)F (stereo in doubt) [Example 179, 3′-Chloro-4′-[3,3,3-trifluoro-2-hydroxy-1-methyl-2-(3-methyl-2-oxo-2,3-dihydro-benzooxazol-6-yl)-propyl]-biphenyl-3-carboxylic acid]
1 nM | C[C@H](c1ccc(Oc2ncc(C(=O)O)cc2Cl)cc1Cl)[C@@](O)(c1ccc2oc(=O)n(C)c2c1)C(F)(F)F (stereo in doubt) [Example 180, 5-Chloro-6-{3-chloro-4-[3,3,3-trifluoro-2-hydroxy-1-methyl-2-(3-methyl-2-oxo-2,3-dihydro-benzooxazol-5-yl)-propyl]-phenoxy}-nicotinic acid]
0.5 nM | C[C@H](c1ccc(Oc2ccc(C(=O)O)cn2)cc1Cl)[C@@](O)(c1ccc2oc(=O)n(C)c2c1)C(F)(F)F (stereo in doubt) [Example 181, 6-{3-Chloro-4-[3,3,3-trifluoro-2-hydroxy-1-methyl-2-(3-methyl-2-oxo-2,3-dihydro-benzooxazol-5-yl)-propyl]-phenoxy}-nicotinic acid]
3.3 nM | COC(=O)c1ccc(Oc2ccc([C@@H](C)[C@@](O)(c3ccc4oc(=O)n(C)c4c3)C(F)(F)F)c(Cl)c2)nc1Cl (stereo in doubt) [Example 182, 2-Chloro-6-{3-chloro-4-[3,3,3-trifluoro-2-hydroxy-1-methyl-2-(3-methyl-2-oxo-2,3-dihydro-benzooxazol-5-yl)-propyl]-phenoxy}-nicotinic acid methyl ester]
0.8 nM | COc1ccc(Cl)c([C@@H](C)[C@@](O)(c2ccc3oc(=O)n(C)c3c2)C(F)(F)F)c1 (stereo in doubt) [Example 192, 5-[2-(2-Chloro-5-methoxy-phenyl)-1-hydroxy-1-trifluoromethyl-propyl]-3-methyl-3H-benzooxazol-2-one]
0.8 nM | C[C@H](c1ccc(-c2ccnnc2)cc1Cl)[C@@](O)(c1ccc2oc(=O)n(C)c2c1)C(F)(F)F (stereo in doubt) [Example 195, 5-[2-(2-Chloro-4-pyridazin-4-yl-phenyl)-1-hydroxy-1-trifluoromethyl-propyl]-3-methyl-3H-benzooxazol-2-one]
1.6 nM | C[C@H](c1ccc(Oc2ncccn2)cc1Cl)[C@@](O)(c1ccc2oc(=O)n(C)c2c1)C(F)(F)F (stereo in doubt) [Example 196, 5-{2-[2-Chloro-4-(pyrimidin-2-yloxy)-phenyl]-1-hydroxy-1-trifluoromethyl-propyl}-3-methyl-3H-benzooxazol-2-one]
5.8 nM | C[C@H](c1cc(O)ccc1Cl)[C@@](O)(c1ccc2oc(=O)n(C)c2c1)C(F)(F)F (stereo in doubt) [Example 197, 5-[2-(2-Chloro-5-hydroxy-phenyl)-1-hydroxy-1-trifluoromethyl-propyl]-3-methyl-3H-benzooxazol-2-one]
4.5 nM | C[C@H](c1ccc(-c2ccc(C(=O)O)c(F)c2)cc1C(F)(F)F)[C@@](O)(c1ccc2oc(=O)n(C)c2c1)C(F)(F)F (stereo in doubt) [Example 200, 3-Fluoro-4′-[3,3,3-trifluoro-2-hydroxy-1-methyl-2-(3-methyl-2-oxo-2,3-dihydro-benzooxazol-5-yl)-propyl]-3′-trifluoromethyl-biphenyl-4-carboxylic acid]
2.5 nM | C[C@H](c1ccc(Oc2ccc(C(=O)O)cn2)cc1Cl)[C@@](O)(c1ccc2c(c1)N(C)C(=O)CO2)C(F)(F)F (stereo in doubt) [Example 205, 6-{3-Chloro-4-[3,3,3-trifluoro-2-hydroxy-1-methyl-2-(4-methyl-3-oxo-3,4-dihydro-2H-benzo[1,4]oxazin-6-yl)-propyl]-phenoxy}-nicotinic acid]
370 nM | C[C@H](c1ccc(OC(C)(C)C(=O)O)cc1Cl)[C@@](O)(c1ccc2c(c1)N(C)C(=O)CO2)C(F)(F)F (stereo in doubt) [Example 207, 2-{3-Chloro-4-[3,3,3-trifluoro-2-hydroxy-1-methyl-2-(4-methyl-3-oxo-3,4-dihydro-2H-benzo[1,4]oxazin-6-yl)-propyl]-phenoxy}-2-methyl-propionic acid]
0.8 nM | C[C@H](c1ccc(Oc2ccc(C(=O)O)c(Cl)n2)cc1Cl)[C@@](O)(c1ccc2c(c1)N(C)C(=O)CO2)C(F)(F)F (stereo in doubt) [Example 209, 2-Chloro-6-{3-chloro-4-[3,3,3-trifluoro-2-hydroxy-1-methyl-2-(4-methyl-3-oxo-3,4-dihydro-2H-benzo[1,4]oxazin-6-yl)-propyl]-phenoxy}-nicotinic acid]
1.2 nM | C[C@H](c1ccc(Oc2cc(Cl)c(C(=O)O)cn2)cc1Cl)[C@@](O)(c1ccc2c(c1)N(C)C(=O)CO2)C(F)(F)F (stereo in doubt) [Example 211, 4-Chloro-6-{3-chloro-4-[3,3,3-trifluoro-2-hydroxy-1-methyl-2-(4-methyl-3-oxo-3,4-dihydro-2H-benzo[1,4]oxazin-6-yl)-propyl]-phenoxy}-nicotinic acid]
1.4 nM | C[C@H](c1ccc(Oc2ccc(C(=O)O)c(C(F)(F)F)n2)cc1Cl)[C@@](O)(c1ccc2c(c1)N(C)C(=O)CO2)C(F)(F)F (stereo in doubt) [Example 215, 6-{3-Chloro-4-[3,3,3-trifluoro-2-hydroxy-1-methyl-2-(4-methyl-3-oxo-3,4-dihydro-2H-benzo[1,4]oxazin-6-yl)-propyl]-phenoxy}-2-trifluoromethyl-nicotinic acid]
3.9 nM | CCOC(=O)C(C)(C)Oc1ccc([C@@H](C)[C@@](O)(c2ccc3oc(=O)n(C)c3c2)C(F)(F)F)c(Cl)c1 (stereo in doubt) [Example 229, 2-{3-Chloro-4-[3,3,3-trifluoro-2-hydroxy-1-methyl-2-(3-methyl-2-oxo-2,3-dihydro-benzooxazol-5-yl)-propyl]-phenoxy}-2-methyl-propionic acid ethyl ester]
35.3 nM | C[C@H](c1ccc(OC(C)(C)C(=O)O)cc1Cl)[C@@](O)(c1ccc2oc(=O)n(C)c2c1)C(F)(F)F (stereo in doubt) [Example 230, 2-{3-Chloro-4-[3,3,3-trifluoro-2-hydroxy-1-methyl-2-(3-methyl-2-oxo-2,3-dihydro-benzooxazol-5-yl)-propyl]-phenoxy}-2-methyl-propionic acid]
6.9 nM | C[C@H](c1ccc(C(=O)NCC(=O)OC(C)(C)C)cc1Cl)[C@@](O)(c1ccc2oc(=O)n(C)c2c1)C(F)(F)F (stereo in doubt) [Example 231, {3-Chloro-4-[3,3,3-trifluoro-2-hydroxy-1-methyl-2-(3-methyl-2-oxo-2,3-dihydrobenzooxazol-5-yl)-propyl]-benzoylamino}-acetic acid tert-butyl ester]
92.4 nM | C[C@H](c1ccc(C(=O)NCC(=O)O)cc1Cl)[C@@](O)(c1ccc2oc(=O)n(C)c2c1)C(F)(F)F (stereo in doubt) [Example 232, {3-Chloro-4-[3,3,3-trifluoro-2-hydroxy-1-methyl-2-(3-methyl-2-oxo-2,3-dihydrobenzooxazol-5-yl)-propyl]-benzoylamino}-acetic acid]
